# Laboratory results reported in ChEMBL document CHEMBL1135424, “Beta-aryl-succinic acid hydroxamates as dual inhibitors of matrix metalloproteinases and tumor necrosis factor alpha converting enzyme” (J Med Chem, 2002).
# Experiments:
# [1] = target: Stromelysin-1 (Homo sapiens, UniProt P08254); test: Inhibitory potency against Matrix metalloprotease-3 (MMP-3)
# [2] = target: Tumor necrosis factor (Homo sapiens, UniProt P01375); test: Inhibitory activity against tumor necrosis factor alpha (TNF-alpha) production in LPS-stimulated human PBMCs; type: functional
# Sequence of Tumor necrosis factor (P01375 whole entry): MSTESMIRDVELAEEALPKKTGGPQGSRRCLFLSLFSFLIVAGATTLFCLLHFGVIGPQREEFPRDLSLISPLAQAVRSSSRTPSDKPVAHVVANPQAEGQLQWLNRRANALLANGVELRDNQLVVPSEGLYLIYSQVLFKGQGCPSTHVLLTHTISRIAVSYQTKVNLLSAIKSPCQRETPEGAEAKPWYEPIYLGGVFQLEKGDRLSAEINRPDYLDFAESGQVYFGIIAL
# [3] = target: T1, Interstitial collagenase (Homo sapiens, UniProt P03956); test: Inhibitory potency against Matrix metalloprotease-1 (MMP-1)
# T1 sequence (P03956 whole entry): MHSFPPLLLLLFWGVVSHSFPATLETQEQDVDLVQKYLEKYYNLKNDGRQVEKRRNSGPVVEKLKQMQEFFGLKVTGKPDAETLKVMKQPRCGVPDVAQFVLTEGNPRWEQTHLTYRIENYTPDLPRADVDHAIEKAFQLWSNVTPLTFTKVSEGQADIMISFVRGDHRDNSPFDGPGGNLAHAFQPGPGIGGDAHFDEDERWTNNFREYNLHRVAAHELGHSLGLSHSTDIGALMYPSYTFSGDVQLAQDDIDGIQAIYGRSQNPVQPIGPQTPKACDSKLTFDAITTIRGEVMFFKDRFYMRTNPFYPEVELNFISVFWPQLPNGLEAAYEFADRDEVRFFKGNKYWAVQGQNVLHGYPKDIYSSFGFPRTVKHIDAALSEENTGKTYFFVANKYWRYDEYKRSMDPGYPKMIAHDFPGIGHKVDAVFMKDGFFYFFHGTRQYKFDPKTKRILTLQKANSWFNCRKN
# [4] = target: 72 kDa type IV collagenase (Homo sapiens, UniProt P08253); test: Inhibitory potency against Matrix metalloprotease-2 (MMP-2)
# Sequence of 72 kDa type IV collagenase (P08253 whole entry, the tested form may be a part): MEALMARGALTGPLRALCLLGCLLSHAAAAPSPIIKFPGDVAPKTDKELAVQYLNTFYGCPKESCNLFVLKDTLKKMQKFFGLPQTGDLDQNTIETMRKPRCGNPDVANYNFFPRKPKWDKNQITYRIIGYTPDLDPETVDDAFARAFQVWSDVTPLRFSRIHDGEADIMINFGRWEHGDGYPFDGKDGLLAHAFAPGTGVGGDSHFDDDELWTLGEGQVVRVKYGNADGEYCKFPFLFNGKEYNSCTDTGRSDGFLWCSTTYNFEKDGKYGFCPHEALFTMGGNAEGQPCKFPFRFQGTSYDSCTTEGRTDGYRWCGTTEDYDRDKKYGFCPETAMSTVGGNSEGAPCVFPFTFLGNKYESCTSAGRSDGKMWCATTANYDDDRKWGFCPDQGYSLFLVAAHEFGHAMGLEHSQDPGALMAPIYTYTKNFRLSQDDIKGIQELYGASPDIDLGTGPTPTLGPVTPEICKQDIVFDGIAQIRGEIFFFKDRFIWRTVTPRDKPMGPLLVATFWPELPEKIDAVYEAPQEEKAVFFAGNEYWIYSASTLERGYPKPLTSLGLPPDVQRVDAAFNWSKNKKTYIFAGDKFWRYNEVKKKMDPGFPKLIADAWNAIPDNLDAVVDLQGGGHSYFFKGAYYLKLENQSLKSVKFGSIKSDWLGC
# [5] = target: Disintegrin and metalloproteinase domain-containing protein 17 (Homo sapiens, UniProt P78536); test: Inhibitory potency against Tumor necrosis factor alpha converting enzyme (TACE)
# Sequence of Disintegrin and metalloproteinase domain-containing protein 17 (P78536 whole entry, the tested form may be a part): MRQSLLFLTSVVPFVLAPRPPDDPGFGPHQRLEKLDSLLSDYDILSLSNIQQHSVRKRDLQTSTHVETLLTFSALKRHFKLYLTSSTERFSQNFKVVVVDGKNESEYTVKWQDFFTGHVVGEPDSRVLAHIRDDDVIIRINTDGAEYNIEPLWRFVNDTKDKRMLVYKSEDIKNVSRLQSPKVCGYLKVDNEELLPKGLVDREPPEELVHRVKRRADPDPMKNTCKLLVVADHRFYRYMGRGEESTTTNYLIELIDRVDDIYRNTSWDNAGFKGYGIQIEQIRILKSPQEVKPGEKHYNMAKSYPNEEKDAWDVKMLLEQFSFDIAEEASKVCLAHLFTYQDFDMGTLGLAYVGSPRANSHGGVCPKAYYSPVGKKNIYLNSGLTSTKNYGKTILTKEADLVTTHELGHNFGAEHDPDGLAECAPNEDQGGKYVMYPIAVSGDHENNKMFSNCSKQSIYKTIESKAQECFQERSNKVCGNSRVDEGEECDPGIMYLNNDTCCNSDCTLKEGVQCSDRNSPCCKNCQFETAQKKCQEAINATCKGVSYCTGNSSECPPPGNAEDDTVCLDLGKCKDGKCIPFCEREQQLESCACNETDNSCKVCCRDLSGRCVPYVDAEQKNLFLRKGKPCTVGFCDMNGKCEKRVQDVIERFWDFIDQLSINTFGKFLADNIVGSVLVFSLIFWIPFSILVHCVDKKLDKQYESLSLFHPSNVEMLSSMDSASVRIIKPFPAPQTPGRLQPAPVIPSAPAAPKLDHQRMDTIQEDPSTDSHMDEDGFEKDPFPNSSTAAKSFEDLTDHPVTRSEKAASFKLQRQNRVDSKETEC
# Sequence of Stromelysin-1 (P08254 whole entry): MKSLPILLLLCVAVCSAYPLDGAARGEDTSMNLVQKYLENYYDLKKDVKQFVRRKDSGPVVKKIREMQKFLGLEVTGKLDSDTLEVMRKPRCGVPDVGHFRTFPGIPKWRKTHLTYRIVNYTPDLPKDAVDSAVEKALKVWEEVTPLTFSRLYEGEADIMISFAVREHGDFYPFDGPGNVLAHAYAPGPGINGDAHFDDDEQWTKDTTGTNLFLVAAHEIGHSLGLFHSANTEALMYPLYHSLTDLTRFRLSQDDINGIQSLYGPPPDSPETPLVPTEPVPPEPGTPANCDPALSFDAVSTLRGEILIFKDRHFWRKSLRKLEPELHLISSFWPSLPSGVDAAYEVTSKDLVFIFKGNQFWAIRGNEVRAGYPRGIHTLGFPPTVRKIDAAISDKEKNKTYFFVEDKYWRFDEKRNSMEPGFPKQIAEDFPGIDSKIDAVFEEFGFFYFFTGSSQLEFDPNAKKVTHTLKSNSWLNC
Ki [1],Ki [3],Ki [4],SMILES,IC50 [2],Ki [5]
9.8 nM,0.6 nM,0.3 nM,CNC(=O)[C@@H](NC(=O)[C@H](CC(C)C)[C@H](CO)C(=O)NO)C(C)(C)C,1610 nM,12.9 nM
,,,CNC(=O)[C@@H](NC(=O)[C@H](CC(C)C)[C@H](O)C(=O)NO)C(C)(C)C,1000 nM,
0.9 nM,1.1 nM,0.5 nM,CNC(=O)[C@@H](NC(=O)[C@H](c1ccc(OC)cc1)[C@H](CO)C(=O)NO)C(C)(C)C,48 nM,0.6 nM
15.2 nM,2 nM,0.3 nM,CNC(=O)[C@@H](NC(=O)[C@H](c1ccc(C)cc1)[C@H](CO)C(=O)NO)C(C)(C)C,269 nM,3.8 nM
13.2 nM,3.5 nM,4.8 nM,CNC(=O)[C@@H](NC(=O)[C@H](c1ccccc1)[C@H](CO)C(=O)NO)C(C)(C)C,928 nM,4.9 nM
